The text below walks through data of US20250170156A1, “TOLL-LIKE RECEPTOR LIGANDS” (INIMMUNE CORPORATION, priority 2018, published 2025).

One series addresses T1, hTLR4 (Homo sapiens, UniProt O00206+Q9Y6Y9).
T1 construct: expressed in transfected cells; host or cells: HEK cells expressing hTLR4 and an NF-κB driven SEAP reporter
The series can be described thus: HEK hTLR4 NF-κB driven SEAP reporter assay (hTLR4 activation). The series is classed as cell-based. To be noted: 18 hours. The method, then:
hTLR4 activation. HEK hTLR4-expressing cells were treated with 100 μM concentration of test compound followed by a 5-fold dilution series. HEK hTLR4-expressing cells also contained an NF-κB driven SEAP reporter and were stimulated with the indicated concentration (FIG. 1A-1C) of the test compound for 18 hours followed by assessment of the cellular supernatant for SEAP by a Quantikine SEAP assay (InvivoGen). The SEAP assay was used to look at secretion of the NF-κB driven alkaline-phosphatase reporter gene in response to TLR4 activation by the compounds and results are interpreted both in terms of potency of the compounds to induce SEAP activation (i.e. potency where a lower EC50 indicates higher potency) and efficacy for receptor activation (i.e. maximal SEAP induction).

For a further series, the system named is hMM6 cells. Briefly: Induction of MIP-1β cytokine from hMM6 cells (ELISA). It counts as cell-based. Particulars: Homo sapiens, 18 hours. As to the method:
Induction of […] cytokine from hMM6 cells. The compounds were next tested in the established MM6 potency assay measuring MIP-1β cytokine production as an output measure of compound potency. Human monocytic cell line, Mono-Mac-6 (hMM6) was obtained from DSMZ (Brunswick, Germany). […] Treatments started at a 100 µM concentration proceeded with a 16-point, 5-fold dilution series. Supernatants were harvested and analyzed for production of MIP-1β via ELISA (R&D systems, catalog #DY271).

The next series has as its system mRAW264.7 cells. Briefly: Induction of MIP-1β cytokine from mRAW264.7 cells (ELISA). The series is classed as cell-based. To be noted: Mus musculus, 18 hours, read-out: mRaw MIP-1β EC50. As to the method:
Induction of MIP-1β cytokine from mRAW264.7 cells. […] Treatments started at 20 μM concentration with a 5-fold serial dilution until 3.2768E-09 μM. Supernatants were harvested and analyzed for production of MIP-1β via ELISA (R& D Systems-cat #DY451).

The nature of series [1]: Stability of aqueous formulations by reverse-phase-HPLC. It counts as physicochemical. The method, then: Formulation. The salted compound was accurately weighed into depyrogenated glass vials, and the required volume of aqueous vehicle added to attain the desired concentration. Vials were placed in a sonication bath (sonication bath temperature≤45° C.) to assist solubility and reduce particle size to achieve sterile filtration without significant loss of compound. Once the solution appeared homogeneous, the particle size was periodically monitored by dynamic light scattering until the solution turned clear and the particle size was <200 mn, or the particle size no longer reduced with continued sonication. The formulation was filtered through a 0.22p PVDF membrane filter into a depyrogenated glass vial and the resulting solution quantitated by RP-HPLC.
Aqueous formulations of compounds 1, 2, 3, 4, 5 and 6 were aliquoted into small depyrogenated vials for stability evaluation at temperatures of 2°-8° C., 25° C., and 40° C. This mirrors ICH stability temperature guidelines, but humidity was not controlled. A vial was pulled for each time point/temperature and analyzed by reverse-phase-HPLC (FIGS. 9-14) according to the following schedule starting from 2 weeks to up to 12 months.

For series [2], the system named is primary hPBMCs. The series can be described thus: Induction of RANTES from primary hPBMCs (ELISA). Particulars: Homo sapiens.
Series [3] deals with primary hPBMCs. The series can be described thus: Induction of MIP-1β from primary hPBMCs (ELISA). Particulars: Homo sapiens.
Series [4] concerns influenza virus antigen A/Victoria/210/2009-H3N2. The series can be described thus: Vaccine adjuvant study, murine influenza virus vaccination model. It counts as in vivo, BALB/c mice. Particulars: intramuscular, 0.1, 0.01 or 0.001 μg with 0.2 μg antigen, 14 days after single immunization, 2% glycine. The method, then: Vaccine adjuvant study. Compounds 2, 4, 5 and 7 were evaluated as vaccine adjuvant in a murine influenza virus vaccination model. 7-9 week old BALB/c mice (10 mice per group) were injected intramuscularly in a hind limb with the influenza virus antigen A/Victoria/210/2009-H3N2 (0.2 μg/mouse) with or without 0.1, 0.01 or 0.001 μg of compound 2, 4, 5 or 7 (formulated in 2% glycine). Fourteen days after a single immunization, animals were bled via the submandibular vein and serum was collected to assay for A/Victoria specific antibodies by ELISA assay (FIG. 7).

[5] abbreviates: read-out: hPBMCs EC50 RANTES, Table 3a, Average of Donors 10, 5, 2.
Where [6] appears, read: read-out: hPBMCs EC50 RANTES, Table 3a, Donor 2.
Where [7] appears, read: read-out: hPBMCs EC50 RANTES, Table 3a, Donor 5.
The mark [8] stands for this setting: read-out: hPBMCs EC50 RANTES, Table 3a, Donor 10.
Setting [9] is: read-out: hPBMCs EC50 RANTES, Table 4b, Average of Donors 22, 5.
Setting [10] is: read-out: hPBMCs EC50 RANTES, Table 4b, Donor 5.
The mark [11] stands for this setting: read-out: hPBMCs EC50 RANTES, Table 4b, Donor 22.
[12] abbreviates: read-out: hPBMCs EC50 MIP-1β, Table 3a, Average of Donors 10, 5, 2.
Where [13] appears, read: read-out: hPBMCs EC50 MIP-1β, Table 3a, Donor 2.
[14] abbreviates: read-out: hPBMCs EC50 MIP-1β, Table 3a, Donor 5.
[15] abbreviates: read-out: hPBMCs EC50 MIP-1β, Table 3a, Donor 10.
Where [16] appears, read: read-out: hPBMCs EC50 MIP-1β, Table 4b, Average of Donors 22, 5.
[17] abbreviates: read-out: hPBMCs EC50 MIP-1β, Table 4b, Donor 5.
The mark [18] stands for this setting: read-out: hPBMCs EC50 MIP-1β, Table 4b, Donor 22.

pEC50: −log10 of the molar value.

T1 sequence (O00206 24-839): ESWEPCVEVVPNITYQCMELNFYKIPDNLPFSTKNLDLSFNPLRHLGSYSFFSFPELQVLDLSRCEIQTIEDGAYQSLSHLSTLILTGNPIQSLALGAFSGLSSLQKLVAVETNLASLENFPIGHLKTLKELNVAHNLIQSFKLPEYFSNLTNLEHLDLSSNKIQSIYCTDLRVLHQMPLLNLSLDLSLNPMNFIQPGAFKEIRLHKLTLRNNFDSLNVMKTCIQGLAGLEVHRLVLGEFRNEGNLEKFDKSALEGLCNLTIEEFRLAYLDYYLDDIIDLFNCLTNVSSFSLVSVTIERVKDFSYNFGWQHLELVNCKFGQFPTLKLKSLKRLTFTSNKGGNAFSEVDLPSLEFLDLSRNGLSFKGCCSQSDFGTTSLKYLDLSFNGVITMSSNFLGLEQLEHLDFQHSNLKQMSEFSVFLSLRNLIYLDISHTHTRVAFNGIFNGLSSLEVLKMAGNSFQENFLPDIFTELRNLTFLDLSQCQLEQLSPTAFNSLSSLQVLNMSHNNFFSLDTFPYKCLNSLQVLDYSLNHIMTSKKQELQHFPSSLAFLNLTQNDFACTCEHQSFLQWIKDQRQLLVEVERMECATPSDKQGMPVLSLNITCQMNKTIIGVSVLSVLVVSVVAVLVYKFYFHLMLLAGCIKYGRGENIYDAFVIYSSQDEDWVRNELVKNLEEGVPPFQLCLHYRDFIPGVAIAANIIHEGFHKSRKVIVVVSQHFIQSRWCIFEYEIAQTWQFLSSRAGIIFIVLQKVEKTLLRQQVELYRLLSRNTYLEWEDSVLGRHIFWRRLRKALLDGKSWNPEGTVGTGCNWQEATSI
T1 sequence (Q9Y6Y9 17-160 limits assumed): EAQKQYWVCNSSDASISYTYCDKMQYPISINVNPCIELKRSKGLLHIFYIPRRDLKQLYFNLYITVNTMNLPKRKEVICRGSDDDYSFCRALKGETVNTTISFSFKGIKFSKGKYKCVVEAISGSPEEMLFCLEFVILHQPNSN

Consider `CCCCCCCCCCC[C@H](CC(=O)NCCO[C@@H]1O[C@H](CO)[C@@H](OP(=O)(O)O)[C@@H](NC(=O)C[C@@H](CCCCCCCCCCC)OC(=O)CCCCCCCCC)[C@H]1NC(=O)C[C@@H](CCCCCCCCCCC)OC(=O)CCCCCCCCC)OC(=O)CCCCCCCCC` [Compound 1, 2-[(R)-3-decanoyloxytetradecanoylamino]ethyl 2,3-di-[(R)-3-decanoyloxytetradecanoylamino]-2,3-dideoxy-4-O-phosphono-β-D-allopyranoside], for which the pEC50 at hTLR4 (Table 1a) is 7.86; at hTLR4 (Table 1b) it was 7.71; with hMM6 cells, 9.60; in the series with mRAW264.7 cells it was 10.24; with primary hPBMCs [2] (setting [5]) it was 10.69; in the series on primary hPBMCs [2] (setting [6]), 10.92. Besides, the pEC50 is 10.60 in the series on primary hPBMCs [2] (setting [7]); 10.62 in the series with primary hPBMCs [2] (setting [8]); 9.87 with primary hPBMCs [2] (setting [9]); 10.05 in the series with primary hPBMCs [2] (setting [10]); 9.75 with primary hPBMCs [2] (setting [11]); 10.67 in the series with primary hPBMCs [3] (setting [12]). Also, the pEC50 in the series with primary hPBMCs [3] (setting [13]) was 10.70; in the series with primary hPBMCs [3] (setting [14]), 10.62; in the series on primary hPBMCs [3] (setting [15]), 10.69; with primary hPBMCs [3] (setting [16]) it was 9.74; with primary hPBMCs [3] (setting [17]) it was 10.12; with primary hPBMCs [3] (setting [18]) it was 9.55. Also, in series [1] (40° C., formulated in 2.5% glycine (FIGS. 9, 12)), the “time with no degradation” value was 6 weeks.
On to `CCCCCCCCCCC[C@H](CC(=O)NCCO[C@@H]1OC(CO)[C@@H](OS(=O)(=O)O)[C@H](NC(=O)C[C@@H](CCCCCCCCCCC)OC(=O)CCCCCCCCC)C1NC(=O)C[C@@H](CCCCCCCCCCC)OC(=O)CCCCCCCCC)OC(=O)CCCCCCCCC` (stereo partly drawn) [Compound 2, 2-[(R)-3-decanoyloxytetradecanoylamino]ethyl 2,3-di-[(R)-3-decanoyloxytetradecanoylamino]-2,3-dideoxy-4-O-sulfoxy-β-D-allopyranoside], for which the pEC50 on hTLR4 (Table 1a) is 7.19; on hTLR4 (Table 1b), 7.39; with hMM6 cells, 8.23; in the series with mRAW264.7 cells, 10.75; with primary hPBMCs [2] (setting [5]) it was 9.61; in the series on primary hPBMCs [2] (setting [6]), 9.42. In addition, the pEC50 in the series with primary hPBMCs [2] (setting [7]) was 9.55; in the series on primary hPBMCs [2] (setting [8]), 10.19; with primary hPBMCs [2] (setting [9]), 9.37; in the series with primary hPBMCs [2] (setting [10]), 9.62; with primary hPBMCs [2] (setting [11]), 9.22; in the series with primary hPBMCs [3] (setting [12]), 10.02. For the same compound, the pEC50 in the series on primary hPBMCs [3] (setting [13]) was 10.12; with primary hPBMCs [3] (setting [14]), 9.78; in the series with primary hPBMCs [3] (setting [15]) it was 10.32; with primary hPBMCs [3] (setting [16]), 9.34; in the series with primary hPBMCs [3] (setting [17]), 9.92; in the series on primary hPBMCs [3] (setting [18]), 9.10. Also, in series [4], the “adjuvant effect on flu-specific IgG2a antibody titers compared to antigen alone” value is recorded as “dose dependent adjuvant effect”. The “time with no degradation” value in series [1] (25° C., formulated in 2% glycine (FIG. 10A)) is recorded as at least 12 months. For the same compound, the degradation entry in series [1] (after 12 months at 40° C., formulated in 2% glycerol (FIG. 10B)) is on record as “less than 10%”.
